# According to patent US20260041679A1, “METHOD OF TREATING HYPERTENSION WITH THE ALDOSTERONE SYNTHASE INHIBITOR BAXDROSTAT” (CINCOR PHARMA, INC., priority 2022, published 2026):
# Test system: patients with uHTN
# Test: Study 124 Part 2: 2 mg baxdrostat monotherapy for 4 weeks, SBP and safety
# Type: in vivo, human
# Settings: for AESI, % / AESI, e - Number of events / AESI, n - Number of subjects / SAEs, % / SAEs, e - Number of events / SAEs, n - Number of subjects / TEAEs Drug-Related, % / TEAEs Drug-Related, e - Number of events / TEAEs Drug-Related, n - Number of subjects / TEAEs Leading to death, % / TEAEs Leading to death, e - Number of events / TEAEs Leading to death, n - Number of subjects / TEAEs Leading to dosing discontinuation, % / TEAEs Leading to dosing discontinuation, e - Number of events / TEAEs Leading to dosing discontinuation, n - Number of subjects / TEAEs Leading to study discontinuation, % / TEAEs Leading to study discontinuation, e - Number of events / TEAEs Leading to study discontinuation, n - Number of subjects / TEAEs, % / TEAEs, e - Number of events / TEAEs, n - Number of subjects: Part 2
# Experimental: Study 124 is a double-blind, placebo-controlled, dose range finding, multicenter study conducted in patients with uHTN receiving background antihypertensive agent(s) that are either an ACEI or an ARB, an ACEI/ARB plus a thiazide diuretic, or an ACEI/ARB plus a calcium channel blocker. The study consists of two parts: Part 1 consists of an 8-week treatment period in which the patients are to be assigned to one of 4 dose groups in equal ratio testing 0.5 mg, 1 mg, and 2 mg baxdrostat effects compared to a placebo. Patients are to administer double-blind baxdrostat tablets once per day while they continue taking the background antihypertensive medications. After 8 weeks of double-blind treatment, patients were to enter part 2 of the study unless the patient was assigned to the 2 mg group and the SBP remains ≥130 mmHg. In part 2 of the study, all patients are to cease dosing with background antihypertensive medication and take only baxdrostat 2 mg dose as a monotherapy for 4 weeks.
# The secondary objectives are to evaluate the change from baseline in mean seated DBP with each of the selected dose strengths of baxdrostat compared to placebo after 8 weeks of treatment (Part 1), the change from baseline in 24-hour urine aldosterone and serum aldosterone levels with each of the selected dose strengths of baxdrostat compared to placebo after 8 weeks of treatment (Part 1), the percentage of patients achieving a mean seated SBP<130 mmHg (“responders”) with each of the selected dose strengths of baxdrostat compared to placebo after 8 weeks; and the change from baseline in 24-hour urine renin and serum renin levels with baxdrostat compared to placebo after 8 weeks of treatment. Patients who have completed the Part 2 study through Week 12 or who were considered withdrawn at the end of Part 1 may be eligible to enter a separate open label extension study (Study 130). Part 2 is an exploratory phase of the trial designed to evaluate the effect of 4 weeks of monotherapy with 2 mg baxdrostat in this hypertensive population, but the major goal of the Part 2 period is to transition patients to a long-term open label safety extension study of baxdrostat at the highest dose likely to be used in the hypertension population.
# In Part 2, background antihypertensive therapy was discontinued following Part 1, and patients took two mg Baxdrostat for four additional weeks. […] There were two cases of moderate hyperkalemia with K+>/=6.0 mEq/L in the 213 patients in Part 2; both patients had stopped diuretic at the start of Part 2 and developed transient moderate hyperkalemia within 2 weeks.
smiles,measurement,setting,value
"CCC(=O)N[C@@H]1CCCc2c(-c3ccc4c(c3)CCC(=O)N4C)cncc21 [baxdrostat, (R)—N-(4-(1-methyl-2-oxo-1,2,3,4-tetrahydroquinolin-6-yl)-5,6,7,8-tetrahydroisoquinolin-8-yl) propionamide]",SBP between the start and the end of the four weeks,"2 mg only, after withdrawal of background medication",remained stable
same,safety and tolerability,"2 mg, 213 patients who entered Part 2",safe and well-tolerated
same,cases of moderate hyperkalemia with K+ >/=6.0 mEq/L,213 patients in Part 2,two cases
same,treatment emergent SAEs,"Part 2, 2 mg",4 events/3 patients with none deemed related to baxdrostat
same,"AESI, %","0.5 mg to 2 mg, n = 63",0%
same,"AESI, e - Number of events","0.5 mg to 2 mg, n = 63",0
same,"AESI, n - Number of subjects","0.5 mg to 2 mg, n = 63",0
same,"SAEs, %","0.5 mg to 2 mg, n = 63",0.0%
same,"SAEs, e - Number of events","0.5 mg to 2 mg, n = 63",0
same,"SAEs, n - Number of subjects","0.5 mg to 2 mg, n = 63",0
same,"TEAEs Drug-Related, %","0.5 mg to 2 mg, n = 63",5.6%
same,"TEAEs Drug-Related, e - Number of events","0.5 mg to 2 mg, n = 63",4
same,"TEAEs Drug-Related, n - Number of subjects","0.5 mg to 2 mg, n = 63",3
same,"TEAEs Leading to death, %","0.5 mg to 2 mg, n = 63",0.0%
same,"TEAEs Leading to death, e - Number of events","0.5 mg to 2 mg, n = 63",0
same,"TEAEs Leading to death, n - Number of subjects","0.5 mg to 2 mg, n = 63",0
same,"TEAEs Leading to dosing discontinuation, %","0.5 mg to 2 mg, n = 63",0%
same,"TEAEs Leading to dosing discontinuation, e - Number of events","0.5 mg to 2 mg, n = 63",0
same,"TEAEs Leading to dosing discontinuation, n - Number of subjects","0.5 mg to 2 mg, n = 63",0
same,"TEAEs Leading to study discontinuation, %","0.5 mg to 2 mg, n = 63",0.0%
same,"TEAEs Leading to study discontinuation, e - Number of events","0.5 mg to 2 mg, n = 63",0
same,"TEAEs Leading to study discontinuation, n - Number of subjects","0.5 mg to 2 mg, n = 63",0
same,"TEAEs, %","0.5 mg to 2 mg, n = 63",16.7%
same,"TEAEs, e - Number of events","0.5 mg to 2 mg, n = 63",15
same,"TEAEs, n - Number of subjects","0.5 mg to 2 mg, n = 63",9
same,"AESI, %","1 mg to 2 mg, n = 62",1.8%
same,"AESI, e - Number of events","1 mg to 2 mg, n = 62",1
same,"AESI, n - Number of subjects","1 mg to 2 mg, n = 62",1
same,"SAEs, %","1 mg to 2 mg, n = 62",1.8%
same,"SAEs, e - Number of events","1 mg to 2 mg, n = 62",2
same,"SAEs, n - Number of subjects","1 mg to 2 mg, n = 62",1
same,"TEAEs Drug-Related, %","1 mg to 2 mg, n = 62",8.8%
same,"TEAEs Drug-Related, e - Number of events","1 mg to 2 mg, n = 62",6
same,"TEAEs Drug-Related, n - Number of subjects","1 mg to 2 mg, n = 62",5
same,"TEAEs Leading to death, %","1 mg to 2 mg, n = 62",0.0%
same,"TEAEs Leading to death, e - Number of events","1 mg to 2 mg, n = 62",0
same,"TEAEs Leading to death, n - Number of subjects","1 mg to 2 mg, n = 62",0
same,"TEAEs Leading to dosing discontinuation, %","1 mg to 2 mg, n = 62",3.5%
same,"TEAEs Leading to dosing discontinuation, e - Number of events","1 mg to 2 mg, n = 62",3
same,"TEAEs Leading to dosing discontinuation, n - Number of subjects","1 mg to 2 mg, n = 62",2
same,"TEAEs Leading to study discontinuation, %","1 mg to 2 mg, n = 62",0.0%
same,"TEAEs Leading to study discontinuation, e - Number of events","1 mg to 2 mg, n = 62",0
same,"TEAEs Leading to study discontinuation, n - Number of subjects","1 mg to 2 mg, n = 62",0
same,"TEAEs, %","1 mg to 2 mg, n = 62",21.1%
same,"TEAEs, e - Number of events","1 mg to 2 mg, n = 62",26
same,"TEAEs, n - Number of subjects","1 mg to 2 mg, n = 62",12
same,"AESI, %","2 mg, n = 60",2.4%
same,"AESI, e - Number of events","2 mg, n = 60",1
same,"AESI, n - Number of subjects","2 mg, n = 60",1
same,"SAEs, %","2 mg, n = 60",0%
same,"SAEs, e - Number of events","2 mg, n = 60",0
same,"SAEs, n - Number of subjects","2 mg, n = 60",0
same,"TEAEs Drug-Related, %","2 mg, n = 60",0%
same,"TEAEs Drug-Related, e - Number of events","2 mg, n = 60",0
